Laboratory results from US6369106B1 (Yissum Research Development Company of the Hebrew …, priority 1996, dated 2002).

Experiments:
[1] = test system: Neuroblastoma SHSY5Y (NB) cells; assay: Protection from oxidative stress in vitro, neutral red survival assay; assay type: cell-based; settings: compound at 0.1 mM, 6-OHDA 0.1-0.25 mM, MPP+ 0.5-2 mM, 24 hours
Description: Protection from oxidative stress in vitro: Neuroblastoma SHSY5Y (NB) cells were maintained in Dulbeco's Modified Eagle's Medium (DMEM), supplemented with 8% FCS and 8% horse serum, penicillin (25 μg/ml), streptomycin (25 μg/ml), 2 mM L-glutamine and 400 μg/ml G418 (Gibco/BRL). For protection experiments cells were subcultured (in 2% serum) to poly-L-lysine-coated 96-well microtiter plates (Nunc), 100 μl of 5×10^5 cells/ml, CEA was applied to the cells in each well and 4 hours later DA, L-dopa (levodopa), 6-OHDA and MPP+ were added for 24 hours.
Survival was assayed by adding neutral red (0.34%, Sigma) to cells in DCCM-1 medium (0.1 ml/well, Bet-Haemek) and incubation for 2 hour at 37° C. The cells were then washed with cold PBS containing 10 mM MgCl2 and the dye was dissolved in 50% ethanol in 50% Somerson buffer (70 mM sodium citrate, 30 mM citric acid, 0.1 N HCl). ELISA reader (590 nm) was used to measure the remaining color intensity.

[2] = Crossing the blood-brain-barrier: compound level in brain extracts by HPLC after IP injection; assay type: in vivo, C57BL/6J mice; settings: mice, IP 0.25-4 mg, 15 min after injection
Description: Detection of compound j (referred to in this Example also as CEA) was established using high performance liquid chromatography (HPLC). To this end, CEA was treated with a fluorescent thiolyte reagent (monobromobimane reagent) and analyzed on an HPLC column.
Crossing the blood-brain-barrier: In vivo experiments were carried out on C57BL/6J mice (15 grams) injected IP with compound J. After incubation (15 min, 60 min or 4 hours) the mice were anesthetized with ether and blood samples were drawn. Then mice underwent perfusion with 50 ml of saline, injected into the right ventricle. The levels of compound I in the brain and in the plasma were detected by selective fluorescent labeling using high performance liquid chromatography (HPLC).
Increasing amounts of compound J were injected IP and 15 min later, mice were perfused with saline and compound J levels in the brain extracts were determined by HPLC chromatography (FIG. 5b), as compared to a control, pure, uninjected compound J (FIG. 5a).

GSH levels = assay: Brain GSH levels after IP injection (HPLC); assay type: in vivo, C57BL/6J mice

Compound level in the brain [2]: concentration-dependent increase
Structure (SMILES): CC(=O)NC(CS)C(N)=O (stereo not shown) [compound J]
Protection of NB cells against toxicity (>50%) of DA, L-dopa, 6-OHDA and MPP+ [1]: protect the cells
Protection of NB cells against toxicity (>50%) of DA, L-dopa, 6-OHDA and MPP+ ([1]; listed as Compound J): protect NB cells
Endogenous GSH levels in mice brain, effect in words (GSH levels): increases endogenous GSH levels
